One compound from patent US6569449B1, “Transdermal delivery of opioid antagonist prodrugs” (University of Kentucky Research Foundation, priority 2000, dated 2003) can be followed below.

Converted amounts (≈) assume the structure as drawn. Like-named read-outs stand apart in the source and are kept apart here.

Data set [1] is described as follows: Solubilities in light mineral oil and pH 7.4 isotonic phosphate buffer. In kind it is physicochemical. The settings on record: thermodynamic from solid, 32° C., 48 hours equilibration. The method, then:
The solubilities of naltrexone and its esters were obtained by equilibrating large excesses of each substance with the respective vehicle, light mineral oil, or pH 7.4 isotonic phosphate buffer at 32° C. To hasten the attainment of equilibrium, each slurry was continuously shaken in a sealed container in a shaking incubation oven. Samples were taken, filtered (mineral oil:Millex FG-13, Millipore and buffer:glass microfiber, Gelman) above 32° C., measured with respect to volume, and diluted with the appropriate amount of acetonitrile. The diluted samples were analyzed by HPLC. The initial forty percent of each filtrate was discarded to eliminate the possibility that adsorption of drug on the filter and/or the filtering apparatus might influence the solubility determination. The sampling procedure was repeated at least once for each sample. […] Therefore, the equilibration times for all the studies were 48 hours.

A short description of data set [2]: Octanol/water partition coefficients. Format: physicochemical. The settings on record: octanol/pH 7.4 isotonic phosphate buffer, room temperature; read-out: Experimental log P. The method, then: The octanol/water partition coefficients were determined using pH 7.4 isotonic phosphate buffer as the aqueous phase. All steps were carried out at room temperature. An appropriate amount of drug was weighed into a vial and dissolved in a known amount of octanol. An equivalent amount of buffer was then added to the vial and the phases shaken for 24 hours. The vials were left undisturbed for at least one hour after shaking. An exact volume was taken from the aqueous phase, diluted with acetonitrile, and then analyzed by HPLC. The final pH of the aqueous phase at the end of the shaking period was 7.95. Similarly, an exact volume was taken from the octanol phase, diluted with acetonitrile, and then analyzed by HPLC. Partition coefficients were calculated by determining the phase concentration ratios.

The term solubility denotes the concentration that dissolves in the medium under given conditions. In the case of `O=C1CC[C@@]2(O)[C@H]3Cc4ccc(O)c5c4[C@@]2(CCN3CC2CC2)[C@H]1O5` [NTX, Naltrexone], the solubility at 48 h in data set [1] (aqueous buffer, pH 7.4 isotonic phosphate buffer, read-out: Phosphate Buffer Solubility pH 7.4 32° C.) stood at 15.2 mM (≈ 5190 µg/mL); in data set [1] (oil or lipid, light mineral oil, read-out: Light Mineral Oil Solubility 32° C.), 0.258 mM (≈ 88.1 µg/mL). In data set [2], the logP at 24 h was 0.67.
